The IC50 is the point on the concentration scale where inhibition reaches its midpoint.

The values below come from paper PMC4747340, “A new class of small molecule estrogen receptor-alpha antagonists that overcome anti-estrogen resistance” (Oncotarget, 2015).

What all share (assay type): cell-based
One assay deals with T1, ER Glu323Ala (Homo sapiens, UniProt P03372, E323A).
T1 construct: expressed in transfected cells; host or cells: MDA-MB-231
Nature of the assay: ER mutation analysis, ERE-TK-Luc reporter in transfected MDA-MB-231 cells. As to conditions: MDA-MB-231 transfected with mutant ER, E2 10 nM, 24 hr. An excerpt:
(§1) B., C. Panels B and C show a comparison of the ER interaction of one of our original series of compounds (A7) (B) and one new compounds (48693-K/1) (C). ER is represented by gray ribbon and its residues interacting with the compounds are drawn with wireframe and labeled. […] The hydrogen bond interaction with ARG 394 is shown in green line. […] The cells were harvested for luciferase assays. Luciferase values are expressed as a percent of the +E2 vehicle control and are means ± SEMs of four wells. The data shown in panels D to G are representative of three independent experiments.
(§2) Subconfluent cells in 24-well dishes were transfected overnight with 0.25 μg of each indicated vector plus the ERE-TK-Luc reporter in serum-free DMEM containing Lipofectamine2000 (Life Technologies, Washington, DC). Total transfected DNA was kept constant by addition of control vector. The cells were washed, incubated in phenol red-free DMEM containing 5% charcoal-stripped serum (obtained from the Tissue Culture Shared Resource) (0.2 ml/well) ± E2 (10 nM) ± the indicated compound for 24-hr, and harvested for luciferase assays. For each assay condition was tested in quadrupicate. To monitor the transfection efficiency, cultures were co-transfected with plasmid pRSV-β-gal (Promega, Madison, WI) to visualize transfected cells by X-gal staining.

A further assay has as its target T2, ER Ile386Ala (Homo sapiens, UniProt P03372, I386A).
T2 construct: expressed in transfected cells; host or cells: MDA-MB-231
The description is as above. As to conditions: MDA-MB-231 transfected with mutant ER, E2 10 nM, 24 hr.
From the text: as §1, §2

The target of another assay is T3, ER Leu327Ala (Homo sapiens, UniProt P03372, L327A).
T3 construct: expressed in transfected cells; host or cells: MDA-MB-231
Described as above. As to conditions: MDA-MB-231 transfected with mutant ER, E2 10 nM, 24 hr.
From the text: as §1, §2

Another assay deals with T4, ER Pro325Ala (Homo sapiens, UniProt P03372, P325A).
T4 construct: expressed in transfected cells; host or cells: MDA-MB-231
Described as above. As to conditions: MDA-MB-231 transfected with mutant ER, E2 10 nM, 24 hr.
From the text: as §1, §2

Another assay addresses T5, ER Glu353Ala (Homo sapiens, UniProt P03372, E353A).
T5 construct: expressed in transfected cells; host or cells: MDA-MB-231
Described as above. As to conditions: MDA-MB-231 transfected with mutant ER, E2 10 nM, 24 hr.
From the text: as §1, §2

In a further assay the target is T6, ER Ile386Ala+Leu387Ala (Homo sapiens, UniProt P03372, I386A/L387A).
T6 construct: expressed in transfected cells; host or cells: MDA-MB-231
The description is as above. As to conditions: MDA-MB-231 transfected with mutant ER, E2 10 nM, 24 hr.
From the text: as §1, §2

The target of a further assay is T7, ER Trp393Ala (Homo sapiens, UniProt P03372, W393A).
T7 construct: expressed in transfected cells; host or cells: MDA-MB-231
The description is as above. As to conditions: MDA-MB-231 transfected with mutant ER, E2 10 nM, 24 hr.
From the text: as §1, §2

The next assay addresses T8, ER Lys449Ala (Homo sapiens, UniProt P03372, K449A).
T8 construct: expressed in transfected cells; host or cells: MDA-MB-231
The description is as above. As to conditions: MDA-MB-231 transfected with mutant ER, E2 10 nM, 24 hr.
From the text: as §1, §2

Another assay concerns the target T9, ER Prol325Ala (Homo sapiens, UniProt P03372, P325A).
T9 construct: expressed in transfected cells; host or cells: MDA-MB-231
The description is as above. As to conditions: MDA-MB-231 transfected with mutant ER, E2 10 nM, 24 hr; second row for residue 325.
From the text: as §1, §2

A further assay deals with T10, ER Pro324Ala (Homo sapiens, UniProt P03372, P324A).
T10 construct: expressed in transfected cells; host or cells: MDA-MB-231
The description is as above. As to conditions: MDA-MB-231 transfected with mutant ER, E2 10 nM, 24 hr.
From the text: as §1, §2

For another assay, the target named is T11, ER Arg394Ala (Homo sapiens, UniProt P03372, R394A).
T11 construct: expressed in transfected cells; host or cells: MDA-MB-231
Described as above. As to conditions: MDA-MB-231 transfected with mutant ER, E2 10 nM, 24 hr.
From the text: as §1, §2

Another assay addresses T12, Wild-type ER (Homo sapiens, UniProt P03372).
T12 construct: expressed in transfected cells; host or cells: MDA-MB-231
Described as above. As to conditions: MDA-MB-231 transfected with wtER, E2 10 nM, 24 hr.
From the text: as §1, §2

The target of the next assay is T13, ER His356Ala (Homo sapiens, UniProt P03372, H356A).
T13 construct: expressed in transfected cells; host or cells: MDA-MB-231
The description is as above. As to conditions: MDA-MB-231 transfected with mutant ER, E2 10 nM, 24 hr.
From the text: as §1, §2

The target of the next assay is T14, ER Leu387Ala (Homo sapiens, UniProt P03372, L387A).
T14 construct: expressed in transfected cells; host or cells: MDA-MB-231
Described as above. The conditions noted are these: MDA-MB-231 transfected with mutant ER, E2 10 nM, 24 hr.
From the text: as §1, §2

A further assay deals with T15, ER Ile326Ala (Homo sapiens, UniProt P03372, I326A).
T15 construct: expressed in transfected cells; host or cells: MDA-MB-231
The description is as above. As to conditions: MDA-MB-231 transfected with mutant ER, E2 10 nM, 24 hr.
From the text: as §1, §2

For assay [1], the target named is T16, estrogen receptor-alpha (ER) (Homo sapiens, UniProt P03372).
T16 sequence (P03372 1-595): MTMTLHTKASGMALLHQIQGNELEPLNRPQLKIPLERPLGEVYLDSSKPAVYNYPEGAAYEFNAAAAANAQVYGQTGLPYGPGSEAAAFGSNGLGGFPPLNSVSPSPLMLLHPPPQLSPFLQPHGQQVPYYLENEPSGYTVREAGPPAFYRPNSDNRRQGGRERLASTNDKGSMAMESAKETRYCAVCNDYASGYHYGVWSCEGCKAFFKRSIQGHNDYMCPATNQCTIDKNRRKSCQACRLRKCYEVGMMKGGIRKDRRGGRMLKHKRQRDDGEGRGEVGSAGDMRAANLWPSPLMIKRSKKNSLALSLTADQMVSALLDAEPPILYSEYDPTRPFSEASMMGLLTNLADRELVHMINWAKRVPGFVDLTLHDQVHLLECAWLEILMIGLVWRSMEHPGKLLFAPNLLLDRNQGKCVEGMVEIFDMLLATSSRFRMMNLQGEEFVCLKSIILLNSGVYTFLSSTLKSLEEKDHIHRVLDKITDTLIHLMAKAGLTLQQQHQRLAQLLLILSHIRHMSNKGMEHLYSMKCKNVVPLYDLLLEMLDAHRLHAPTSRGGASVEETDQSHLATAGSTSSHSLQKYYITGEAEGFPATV
Nature of the assay: constitutive ER activity, ERE-TK-Luc reporter, in anti-estrogen resistant LCC9 cells. Further details: LCC9 cells in 24-well dishes were transfected overnight with the ERE-TK-Luc reporter plasmid; endogenous in cells; host or cells: LCC9. The conditions noted are these: compound plus Tam compared with compound alone, 24 hr. Here is the method: For MCF-7, luciferase activity is expressed as a fold-change relative to the no E2 control. For LCC9, luciferase activity is expressed relative to the control without the reporter present. Values plotted are means ± SEMs of four replicate wells. The data shown in each panel are representative of three independent experiments.
The cells were then treated with the indicated concentrations of the six bioactive compounds or vehicle only (DMSO) for 24-hr and assayed for luciferase activity. Luciferase activity is expressed as a percentage of the DMSO control. Values are means ± SEMs of four replicate wells. The data shown in each panel are representative of three independent experiments.
The cells were then harvested for luciferase assays. Luciferase activity was expressed as a fold-change relative to the no reporter control. Values plotted are means ± SEMs of four replicate wells. The data shown are representative of three independent experiments.
as §2

T9 sequence (P03372 whole entry P325A): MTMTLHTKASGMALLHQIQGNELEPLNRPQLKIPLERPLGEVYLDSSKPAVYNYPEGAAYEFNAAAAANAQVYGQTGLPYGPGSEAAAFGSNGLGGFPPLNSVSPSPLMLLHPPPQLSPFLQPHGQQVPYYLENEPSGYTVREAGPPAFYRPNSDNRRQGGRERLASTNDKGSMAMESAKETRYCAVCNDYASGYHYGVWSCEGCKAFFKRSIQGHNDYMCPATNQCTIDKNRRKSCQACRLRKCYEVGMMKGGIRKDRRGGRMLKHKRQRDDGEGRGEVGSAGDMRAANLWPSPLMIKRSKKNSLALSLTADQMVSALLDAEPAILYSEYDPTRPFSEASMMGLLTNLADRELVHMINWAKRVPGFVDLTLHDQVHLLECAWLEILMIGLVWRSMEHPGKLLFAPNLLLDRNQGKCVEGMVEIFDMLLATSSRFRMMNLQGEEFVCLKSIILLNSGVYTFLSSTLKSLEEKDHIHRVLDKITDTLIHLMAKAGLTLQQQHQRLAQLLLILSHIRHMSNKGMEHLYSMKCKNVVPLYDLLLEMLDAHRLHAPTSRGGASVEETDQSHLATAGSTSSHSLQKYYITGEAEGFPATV
T4 sequence (P03372 whole entry P325A): as above
T10 sequence (P03372 whole entry P324A): as the sequence (P03372 whole entry P325A) above, with P324A, A325P counted along it
T14 sequence (P03372 whole entry L387A): as the sequence (P03372 whole entry P325A) above, with A325P, L387A counted along it
T5 sequence (P03372 whole entry E353A): as the sequence (P03372 whole entry P325A) above, with A325P, E353A counted along it
T8 sequence (P03372 whole entry K449A): as the sequence (P03372 whole entry P325A) above, with A325P, K449A counted along it
T13 sequence (P03372 whole entry H356A): as the sequence (P03372 whole entry P325A) above, with A325P, H356A counted along it
T15 sequence (P03372 whole entry I326A): as the sequence (P03372 whole entry P325A) above, with A325P, I326A counted along it
T11 sequence (P03372 whole entry R394A): as the sequence (P03372 whole entry P325A) above, with A325P, R394A counted along it
T3 sequence (P03372 whole entry L327A): as the sequence (P03372 whole entry P325A) above, with A325P, L327A counted along it
T1 sequence (P03372 whole entry E323A): as the sequence (P03372 whole entry P325A) above, with E323A, A325P counted along it
T6 sequence (P03372 whole entry I386A/L387A): as the sequence (P03372 whole entry P325A) above, with A325P, I386A, L387A counted along it
T2 sequence (P03372 whole entry I386A): as the sequence (P03372 whole entry P325A) above, with A325P, I386A counted along it
T7 sequence (P03372 whole entry W393A): as the sequence (P03372 whole entry P325A) above, with A325P, W393A counted along it

Consider `Oc1cc(CN2COc3ccccc32)c(O)cc1CNC1CCCCC1` [A7, reference compound], for which the IC50 on ER Glu323Ala was 13 µM; against ER Ile386Ala it was 2.5 µM; against ER Leu327Ala, 12 µM; at ER Pro325Ala, 7 µM; against ER Glu353Ala it was 11 µM; against ER Ile386Ala+Leu387Ala, 2.5 µM. Moreover, the IC50 is 12 µM against ER Trp393Ala; 2 µM against ER Lys449Ala; 7 µM against ER Prol325Ala; 3 µM against ER Pro324Ala; 12 µM against ER Arg394Ala; 2.5 µM against Wild-type ER. Further, the concentration for half-maximal inhibition (IC50) at ER His356Ala turned out to be 11 µM; on ER Leu387Ala it was 2.5 µM; on ER Ile326Ala, 13 µM. Also, the “ER activity in LCC9 cells, compound combined with Tam” value in assay [1] is “no more inhibition of ER activity than A7 alone”.
